Data on 19 molecules can be found in patent US9051310B2, “Nicotinamide derivative or salt thereof” (FUJIFILM Corporation, priority 2011, dated 2015).

Where only a bound is given, the exact number is not on record here.

The target in assay [1] is T1, glutathione S-transferase (GST)-linked full-length human Syk protein (Homo sapiens, UniProt P43405).
T1 construct: glutathione S-transferase (GST)-linked full-length human Syk protein; purchased Carna Biosciences; host or cells: Baculovirus expression system
Kind of assay: Syk enzyme assay. It counts as biochemical. Particulars: 0.83 nM Syk, time-resolved fluorescence; read-out: IC50 of Syk-inhibitory activity. A digest of the protocol: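 Phosphotyrosine on a biotin-peptide substrate (0.5 μM) was read by time-resolved fluorescence at 615 and 665 nm with Eu-anti-pTyr antibody and APC-streptavidin after 1 h EDTA stop.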

Assay [2] deals with THP-1 cells (phagocytosis of opsonized Escherichia coli). As to the kind of experiment: Antibody-dependent phagocytosis assay. Particulars: Homo sapiens; IFNγ differentiated THP-1 cells, opsonized pHrodo Escherichia coli, 3 hours; read-out: IC50 upon phagocytosis inhibition. Type of assay: cell-based. In outline:
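Read-out was imaging-based quantification of pHrodo-labeled, antibody-opsonized E. coli taken up by Calcein AM-stained viable cells after 3 h at 37° C. The cells were IFNγ-differentiated THP-1 macrophages (10 ng/ml, 2 days), preincubated with compound for 30 min at room temperature.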

Assay [3] concerns THP-1 cells (TNFα secretion on human IgG-coated plate). As to the kind of experiment: TNFα generation assay. It counts as cell-based. Particulars: IFN-γ differentiated THP-1 cells, 7 hours, AlphaLISA, read-out: IC50 of TNFα generation inhibitory activity. A digest of the protocol: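 Secreted TNFα was measured by AlphaLISA after 7 h of culture on human IgG-coated wells (coating at 10 μg/ml), with 5×10^4 cells/well. Before plating, the cells had been treated with compound for 30 min at room temperature. The cells were macrophage-like THP-1, produced by a 2-day exposure to 10 ng/ml IFN-γ.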

Take `COc1nn(CC(F)F)c2ccc(Nc3nc(N[C@H](C4CC4)[C@H](C)N)c(F)cc3C(N)=O)cc12` [Example 2-74, 6-(((1R,2S)-2-amino-1-cyclopropylpropyl)amino)-2-((1-(2,2-difluoroethyl)-3-methoxy-1H-indazol-5-yl)amino)-5-fluoronicotinamide]: the IC50 in assay [1] was below 10 nM; in assay [2], below 1000 nM; in assay [3] it was 65 to 130 nM.
For `CC(C)C[C@@H](Nc1nc(Nc2cccc3c2cnn3CC(F)F)c(C(N)=O)cc1F)[C@H](C)N` [Example 2-22, 6-(((2S,3R)-2-amino-5-methylhexan-3-yl)amino)-2-((1-(2,2-difluoroethyl)-1H-indazol-4-yl)amino)-5-fluoronicotinamide], the IC50 in assay [1] is below 10 nM; in assay [2], below 1000 nM; in assay [3] it was 130 to 200 nM.
With `CC[C@@H](Nc1nc(Nc2cccc3c2cnn3CC(F)F)c(C(N)=O)cc1F)[C@H](C)N` [Example 2-23, 6-(((2S,3R)-2-aminopentan-3-yl)amino)-2-((1-(2,2-difluoroethyl)-1H-indazol-4-yl)amino)-5-fluoronicotinamide], the results for the IC50 in assay [1], in assay [2] and in assay [3] were below 10 nM, below 1000 nM and 65 to 130 nM, respectively.
As to `Cc1ncc(Nc2nc(N[C@@H]3CCOC[C@@H]3N)c(F)cc2C(N)=O)cc1-n1nccn1` [Example 2-214, 6-(((3R,4R)-3-aminotetrahydro-2H-pyran-4-yl)amino)-5-fluoro-2-((6-methyl-5-(2H-1,2,3-triazol-2-yl)pyridin-3-yl)amino)nicotinamide], the IC50 in assay [1] was below 10 nM; in assay [2], 1000 to 3000 nM; in assay [3], 65 to 130 nM.
Consider `CCCC[C@@H](Nc1nc(Nc2cncc3c2cnn3CC)c(C(N)=O)cc1F)[C@H](C)N` [Example 2-321, 6-(((2S,3R)-2-aminoheptan-3-yl)amino)-2-((1-ethyl-1H-pyrazolo[3,4-c]pyridin-4-yl)amino)-5-fluoronicotinamide], for which the IC50 in assay [1] is below 10 nM; in assay [2] it was 1000 to 3000 nM; in assay [3], 130 to 200 nM.
Turning to `CCn1nc(OC)c2cc(Nc3nc(N[C@H](CC(C)C)[C@H](C)N)c(F)cc3C(N)=O)ccc21` [Example 2-51, 6-(((2S,3R)-2-amino-5-methylhexan-3-yl)amino)-2-((1-ethyl-3-methoxy-1H-indazol-5-yl)amino)-5-fluoronicotinamide], the IC50 in assay [1] is below 10 nM; in assay [2], below 1000 nM; in assay [3] it was 130 to 200 nM.
Take `CCn1ncc2c(Nc3nc(N[C@@H]4CCCC[C@@H]4N)c(F)cc3C(N)=O)cncc21` [Example 2-316]: the values for the IC50 in assay [1], in assay [2] and in assay [3] were below 10 nM, below 1000 nM and 65 to 130 nM, respectively.
The matching figures for `CC[C@@H](Nc1nc(Nc2ccc3c(c2)c(OC(F)F)nn3C)c(C(N)=O)cc1F)[C@H](C)N` [Example 2-170, 6-(((2S,3R)-2-aminopentan-3-yl)amino)-2-((3-(difluoromethoxy)-1-methyl-1H-indazol-5-yl)amino)-5-fluoronicotinamide]: below 10 nM, 1000 to 3000 nM and 130 to 200 nM.
The matching figures for `COC[C@@H](Nc1nc(Nc2ccc3c(c2)c(OC)nn3C)c(C(N)=O)cc1F)[C@H](C)N` [Example 2-121, 6-(((2S,3S)-3-amino-1-methoxybutan-2-yl)amino)-5-fluoro-2-((3-methoxy-1-methyl-1H-indazol-5-yl)amino)nicotinamide]: below 10 nM, 1000 to 3000 nM and 130 to 200 nM.
With `CC[C@@H](Nc1nc(Nc2cnc(C)c(-n3nccn3)c2)c(C(N)=O)cc1F)[C@H](C)N` [Example 2-31, 6-(((2S,3R)-2-aminopentan-3-yl)amino)-5-fluoro-2-((6-methyl-5-(2H-1,2,3-triazol-2-yl)pyridin-3-yl)amino)nicotinamide], the values for the IC50 in assay [1], in assay [2] and in assay [3] were below 10 nM, below 1000 nM and 65 to 130 nM, respectively.
For the molecule `CC[C@H](N)[C@@H](C)Nc1nc(Nc2cncc3c2cnn3CC)c(C(N)=O)cc1F` [Example 2-325, 6-(((2R,3S)-3-aminopentan-2-yl)amino)-2-((1-ethyl-1H-pyrazolo[3,4-c]pyridin-4-yl)amino)-5-fluoronicotinamide], the IC50 in assay [1] is below 10 nM; in assay [2], below 1000 nM; in assay [3], 130 to 200 nM.
The matching figures for `CCC[C@@H](Nc1nc(Nc2cccc3c2cnn3CC)c(C(N)=O)cc1F)[C@H](C)N` [Example 2-96, 6-(((2S,3R)-2-aminohexan-3-yl)amino)-2-((1-ethyl-1H-indazol-4-yl)amino)-5-fluoronicotinamide]: below 10 nM, below 1000 nM and 130 to 200 nM.
Take `Cc1ncc(Nc2nc(N[C@H](CC(C)C)[C@H](C)N)c(F)cc2C(N)=O)cc1F` [Example 2-224, 6-(((2S,3R)-2-amino-5-methylhexan-3-yl)amino)-5-fluoro-2-((5-fluoro-6-methylpyridin-3-yl)amino)nicotinamide]: the values for the IC50 in assay [1], in assay [2] and in assay [3] were below 10 nM, 1000 to 3000 nM and 130 to 200 nM, respectively.
Taken in the same sequence, the figures for `COc1ncc(Nc2nc(N[C@@H]3CCOC[C@@H]3N)c(F)cc2C(N)=O)cc1-n1nccn1` [Example 2-216, 6-(((3R,4R)-3-aminotetrahydro-2H-pyran-4-yl)amino)-5-fluoro-2-((6-methoxy-5-(2H-1,2,3-triazol-2-yl)pyridin-3-yl)amino)nicotinamide] were 10 to 50 nM, 1000 to 3000 nM and 130 to 200 nM.
Regarding `CCn1ncc2c(Nc3nc(N[C@H](C4CC4)[C@H](C)N)c(F)cc3C(N)=O)cncc21` [Example 2-320, 6-(((1R,2S)-2-amino-1-cyclopropylpropyl)amino)-2-((1-ethyl-1H-pyrazolo[3,4-c]pyridin-4-yl)amino)-5-fluoronicotinamide], the IC50 was below 10 nM in assay [1], below 1000 nM in assay [2] and 65 to 130 nM in assay [3].
For the molecule `COCCn1nc(C)c2cc(Nc3nc(N[C@H](COC)[C@H](C)N)c(F)cc3C(N)=O)ccc21` [Example 2-135, 6-(((2S,3S)-3-amino-1-methoxybutan-2-yl)amino)-5-fluoro-2-((1-(2-methoxyethyl)-3-methyl-1H-indazol-5-yl)amino)nicotinamide], the IC50 lay within 10 to 50 nM in assay [1], 1000 to 3000 nM in assay [2] and 130 to 200 nM in assay [3].
In the case of `CCn1ncc2c(Nc3nc(N[C@H](C4CCC4)[C@H](C)N)c(F)cc3C(N)=O)cccc21` [Example 2-98, 6-(((1R,2S)-2-amino-1-cyclobutylpropyl)amino)-2-((1-ethyl-1H-indazol-4-yl)amino)-5-fluoronicotinamide], the IC50 in assay [1] was below 10 nM; in assay [2] it was below 1000 nM; in assay [3] it was 130 to 200 nM.
As to `CC[C@H](N)[C@@H](C)Nc1nc(Nc2ccc3c(cnn3C)c2)c(C(N)=O)cc1F` [Example 2-40, 6-(((2R,3S)-3-aminopentan-2-yl)amino)-5-fluoro-2-((1-methyl-1H-indazol-5-yl)amino)nicotinamide], the IC50 is below 10 nM in assay [1], below 1000 nM in assay [2] and below 65 nM in assay [3].
Taken in the same sequence, the figures for `CC[C@H](N)[C@@H](C)Nc1nc(Nc2cnc(C)c(F)c2)c(C(N)=O)cc1F` [Example 2-270, 6-(((2R,3S)-3-aminopentan-2-yl)amino)-5-fluoro-2-((5-fluoro-6-methylpyridin-3-yl)amino)nicotinamide] were 10 to 50 nM, 1000 to 3000 nM and 65 to 130 nM.
